Assay results: ChEMBL document CHEMBL3352546, “KDM4B as a target for prostate cancer: structural analysis and selective inhibition by a novel inhibitor” (J Med Chem, 2014)
The source made the active and inactive calls. The calls are words filed in the database; no cut-off is given here.

Experiments:
LNCaP = test: Cytotoxicity against human LNCAP cells after 3 days by MTT assay; format: functional, cell-based; conditions: 72 h
[1] = molecular target: T1, Lysine-specific demethylase 4D (Homo sapiens) (UniProt Q6B0I6); test: Inhibition of purified recombinant KDM4D (1 to 350 aa) (unknown origin) expressed in Escherichia coli using H3K9me3 peptide as substrate after 30 mins by FDH-coupled assay
T1 sequence (whole entry): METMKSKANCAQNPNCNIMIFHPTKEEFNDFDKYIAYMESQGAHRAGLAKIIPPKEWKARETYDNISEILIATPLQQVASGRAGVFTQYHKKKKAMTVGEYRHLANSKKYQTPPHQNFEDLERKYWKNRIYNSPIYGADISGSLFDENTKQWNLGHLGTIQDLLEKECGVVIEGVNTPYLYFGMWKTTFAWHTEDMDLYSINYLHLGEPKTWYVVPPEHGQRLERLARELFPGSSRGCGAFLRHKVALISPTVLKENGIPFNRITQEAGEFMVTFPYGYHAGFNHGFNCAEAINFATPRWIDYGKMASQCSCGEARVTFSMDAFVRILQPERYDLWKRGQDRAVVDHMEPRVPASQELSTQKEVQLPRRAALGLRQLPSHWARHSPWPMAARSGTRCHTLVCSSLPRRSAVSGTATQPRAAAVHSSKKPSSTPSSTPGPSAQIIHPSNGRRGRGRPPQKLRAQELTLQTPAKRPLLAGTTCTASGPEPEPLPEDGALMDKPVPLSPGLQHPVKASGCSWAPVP

[2] = molecular target: T2, Lysine-specific demethylase 4E (Homo sapiens) (UniProt B2RXH2); test: Inhibition of purified recombinant KDM4E (1 to 347 aa) (unknown origin) expressed in Escherichia coli using H3K9me3 peptide as substrate after 30 mins by FDH-coupled assay
T2 sequence (whole entry): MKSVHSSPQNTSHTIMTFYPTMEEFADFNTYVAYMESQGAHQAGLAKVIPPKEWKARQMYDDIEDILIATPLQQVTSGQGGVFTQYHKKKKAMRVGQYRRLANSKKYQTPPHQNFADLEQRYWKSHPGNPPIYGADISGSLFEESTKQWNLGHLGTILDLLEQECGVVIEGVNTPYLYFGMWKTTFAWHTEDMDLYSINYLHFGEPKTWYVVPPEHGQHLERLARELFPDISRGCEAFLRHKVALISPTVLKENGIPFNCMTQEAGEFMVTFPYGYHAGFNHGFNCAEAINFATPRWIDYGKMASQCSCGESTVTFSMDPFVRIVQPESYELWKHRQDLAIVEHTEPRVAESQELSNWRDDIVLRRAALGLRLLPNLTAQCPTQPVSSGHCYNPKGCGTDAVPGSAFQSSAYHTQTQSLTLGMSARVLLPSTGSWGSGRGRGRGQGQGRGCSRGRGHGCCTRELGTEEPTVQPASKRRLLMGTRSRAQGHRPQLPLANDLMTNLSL

[3] = Cytotoxicity against human PNT2 cells at 5 to 20 uM measured over 6 days by MTT assay; format: cell-based; conditions: pnt2, 144 h

SMILES	CC50 (LNCaP)	inhibition [1]	inhibition [2]	Activity [3]
O=C(O)c1ccnc(C(=O)O)c1	589 µM	Active	Active	–
O=[N+]([O-])c1cc([N+](=O)[O-])c(/C=C/c2ccc(Cl)c(Cl)c2)cc1/C=C/c1ccc(Cl)c(Cl)c1	–	inactive	inactive	Non-toxic
